Assays:
[1] = test system: rabbit corpus cavernosum tissue; test: Relaxation of phenylephrine-contracted corpus cavernosum tissue strips in organ chambers; type: cell-based; details: for effect on N-hydroxy-L-arginine induced relaxation / effect on hydroxylamine induced relaxation: 20% O2; for effect on hydroxylamine induced relaxation: increasing hydroxylamine
Procedure: (§1) Rabbits were euthanized with an overdose of intravenous pentobarbital (60 mg/kg) and immediately exsanguinated. The entire penis was then removed and the corpus cavernosum tissue dissected free from the surrounding tunica albuginea and cut into strgips (3×3×7 mm). Corpus cavernosum tissues were maintained at 4-6° C. in M-400 solution (composition per 100 ml: mannitol, 4.19 g; KH2PO4, 0.205 g; K2HPO4.3H2O, 0.97 g; KCl, 0.112 g; NaHCO3, 0.084 g) until used. Corpus cavernosum tissues were typically used between 2 and 16 hrs from extraction.
Corpus cavernosum tissue was prepared as described in Example 1. For experimentation to measure relaxation of the tissue under various conditions, the corpus cavernosum tissues were then suspended in 10 ml organ chambers and bathed in a physiological salt solution, maintained at 37° C. and aerated with 5% CO2/95% air, pH 7.4. Each corpus cavernosum tissue strip was incrementally stretched to optimal isometric tension as determined by the maximal contractile response to 1 μM phenylephrine. After several exchanges of fresh physiological solution, the media was bubbled with gas mixtures containing 5% CO2, the indicated amount of oxygen (between 0% and 20%) and the remaining percentage was N2, for thirty minutes. Corpus cavernosum tissues were then contracted with a submaximal concentration of phenylephrine, and the contraction was allowed to reach a steady state level. Once a steady state of muscle tension was reached, the tissue was exposed to various concentrations of test compounds, and the relaxation responses were recorded. Relaxation responses were expressed as a percentage of total relaxation induced by a supramaximal addition of papaverine (total loss of tone) at the end of the experiment. The data in FIGS. 3-6 are expressed as mean±standard mean error

rat aortic segments = test: Relaxation of norepinephrine-contracted rat aortic segments from non-diabetic and diabetic rats; type: cell-based; details: for effect on acetylcholine induced relaxation of aorta segments / effect on acetylcholine induced relaxation of aortic rings: 10 μM test drug, 10 nM-10 μM ACh, normoxia; for effect on acetylcholine induced relaxation of aorta segments: diabetic rats, FIG. 10B; for effect on acetylcholine induced relaxation of aortic rings: non-diabetic rats, FIG. 10A
Procedure: Diabetes was induced in rats by the administration of a single injection of steptozotocin (60 mg/kg; i.p). Diabetic rats remained untreated for a total of 8 weeks. […] Rats were anesthetized with diethyl ether and exsanguinated. The thoracic aorta was then removed and the tissue dissected free from the surrounding periadventitial fat and connective tissue, taking precautions to avoid touching the luminal surface. The tissue was cut into 8 segments, each approximately 3-4 mm in length. Rat aortic segments were maintained at 4-6° C. Krebs-bicarbonate buffer (composition per millimolar: NaCl, 120; KCl, 5.6; MgCl2, 1.2; NaH2PO4, 1.2; dextrose, 10; NaHCO3, 25; CaCl2 2.5; pH 7.4) until used. Aortic segments were typically used between 2 and 16 hrs from extraction. […] Each aortic tissue strip was submitted to 1.5 g of resting tension. […] The aortic segments were then contracted with submaximal concentration of norepinephrine and the contraction as allowed to reach a steady state level. Once a steady state of muscle tension was reached, the tissue was exposed to various concentrations of test compounds and the relaxation responses were recorded. Relaxation responses were expressed as a percentage of total relaxation induced by a supramaximal addition of papaverine (total loss of tone) at the end of the experiment. In FIGS. 7-12, the data are expressed as mean±standard mean error.

[2] = test system: left hindlimb of autoperfused non-diabetic or diabetic rats; test: Vasoactive response (hindlimb perfusion pressure) of anesthetized autoperfused rats; type: in vivo, rat; details: bolus infusion 0.1-10 mg/kg, pressure elevated by norepinephrine 2 μg/min/kg, FIGS. 12A/12B
Procedure: The left hindlimb of the anesthetized rats were perfused through the femoral artery at a constant rate of 3.3 ml/min/kg with blood from the carotid artery by means of a peristaltic pump. The vasoactive response induced by the bolus infusion of increasing concentrations of L-arginine or N-hydroxy-L-arginine into the left hindlimb of autoperfused non-diabetic or diabetic rats was determined by measuring the change in the perfusion pressure, which was previously elevated by a norepinephrine constant infusion (2 μg/min/kg).

[3] = test system: rabbit corpus cavernosum tissue; test: cGMP production (basal and acetylcholine stimulated) by corpus cavernosum tissue strips, ELISA; type: cell-based; details: for basal cGMP production: normoxic (20% O2), vs vehicle control, FIG. 1; for cGMP concentration in acetylcholine stimulated tissue compared to basal values (ACh alone): 300 μM test drug + 30 μM ACh, under normoxia (20% O2) and hypoxia (0% O2), FIGS. 2A/2B
Procedure: as §1
Measurement of cyclic GMP in corpus cavernosal tissues was carried out as follows. Corpus cavernosal tissue strips were immersed in a 10 ml organ chamber containing physiological salt solution, maintained at 37° C. and aerated with 5% CO2/95% air, pH 7.4. Each strip was incrementally stretched to optimal isometric tension, as determined by maximal contractile responses to 1 μM phenylephrine ((R)-3-hydroxy-α-[(methylamino)methyl]-benzenemethanol hydrochloride). The physiological salt solution was then replaced with one bubbled with either 20% oxygen or 0% oxygen and the tissues were then given 0.5 μM phenylephrine, 30 μM Zaprinast and 100 μM IBMX (3-isobutyl-1-methylxanthine, […]) and incubated for 15 minutes; after which time each tissue was incubated with the test drug (or control drug) at various concentrations or with vehicle (the buffer in which the drugs are delivered). Tissues were incubated for another 5 minutes then immediately frozen in liquid nitrogen and stored at −80° C. until extraction for cyclic nucleotide assay. Tissues were extracted by homogenization in 6% trichloroacetic acid followed by ether (H2O-saturated) extraction and lyophilization. cGMP levels were determined by ELISA using a kit from Cayman Chemical Co. (Ann Arbor, Mich.).
Protein concentration in the corpus cavernosum tissue was determined using the Bio-Rad Protein Assay Kit microtiter plate assay procedure (Bio-Rad, Hercules, Calif.) with bovine serum albumin as the standard.

[4] = estimated; cited from earlier work
[5] = 0.1 mM L-NNA or 0.02 mM ODQ, increasing N-hydroxy-L-arginine, FIG. 4A
[6] = 0.1 mM L-NNA or 0.02 mM ODQ, FIG. 4B

For Clc1ccc(COC(Cn2ccnc2)c2ccc(Cl)cc2Cl)c(Cl)c1 (stereo not drawn) [miconazole], the “effect on N-hydroxy-L-arginine induced relaxation” value ([1]; 0.1 mM miconazole, increasing N-hydroxy-L-arginine 1-1000 μM, FIG. 3) was “does not significantly effect the relaxation of the tissues”.

With N=C(NCCC[C@H](N)C(=O)O)N[N+](=O)[O-] [L-NNA, N^G-nitro-L-arginine] the “effect on N-hydroxy-L-arginine induced relaxation” value ([1]; 0.1 mM L-NNA added together with 0.1 mM miconazole, FIG. 3) was “does decrease the effectiveness of N-hydroxy-L-arginine to relax the tissue”, the “effect on N-hydroxy-L-arginine induced relaxation” value [1, 5] was “significantly decreased the measured relaxation” and the “effect on hydroxylamine induced relaxation” value [1, 6] was “had no effect”.

With NC(=NCCC[C@H](N)C(=O)O)NO [N-hydroxy-L-arginine, N^G-hydroxy-L-arginine] the “induced relaxation, diabetic versus non-diabetic aortic segments” value (rat aortic segments; 1 μM, 95% O2, FIG. 8) was “more effective in inducing the relaxation of aortic segments obtained from diabetic rats”, the “effect on acetylcholine induced relaxation of aorta segments” value (rat aortic segments) was “increased the relaxation” and the “effect on acetylcholine induced relaxation of aortic rings” value (rat aortic segments) was “do not effect the relaxation of aortic rings”. The “induced relaxation of aortic segments compared with L-arginine” value (rat aortic segments; 95% O2, 100 nM-100 μM, non-diabetic and diabetic rats, FIGS. 7A/7B) was “more effective in inducing relaxation in both non-diabetic and diabetic rats”, the “tissue relaxation at 1 mM” value ([1]; all oxygen concentrations (0%, 1%, 2%, 5%, 20%), FIG. 6) was “significant relaxation of the tissue” and the “change in hindlimb perfusion pressure, non-diabetic versus diabetic rats” value [2] was “no difference in the perfusion pressure”. The “basal cGMP production” value ([3]; 30 μM test drug) was “stimulated cGMP production approximately equally”, the “cGMP concentration in acetylcholine stimulated tissue compared to basal values (ACh alone)” value [3] was “statistically significant increase in the concentration of cGMP” and the “basal cGMP production” value ([3]; 300 μM test drug) was “effective to stimulate a higher concentration of cGMP production”.

For N=C(N)NCCC[C@H](N)C(=O)O [L-arginine], the “effect on acetylcholine induced relaxation of aorta segments” value (rat aortic segments) was “resulted in a decreased relaxation”, the “effect on acetylcholine induced relaxation of aortic rings” value (rat aortic segments) was “do not effect the relaxation of aortic rings” and the “tissue relaxation at 1 mM” value ([1]; oxygen concentrations of 0%, 1%, 2% and 5% (data not shown)) was “no measurable effect on tissue relaxation”. For the same compound, the “change in hindlimb perfusion pressure, non-diabetic versus diabetic rats” value [2] was “the pressure change was greater for the non-diabetic rats compared to diabetic rats”, the “cGMP concentration in acetylcholine stimulated tissue compared to basal values (ACh alone)” value [3] was “not effective to statistically increase the concentration of cGMP” and the “basal cGMP production” value ([3]; 300 μM test drug) was “stimulated cGMP production approximately equally”.

In the case of [N]=O [nitric oxide], the “half-life in biological tissues” value [4] is listed as “less than one second”.

With NO [hydroxylamine] the “relaxation of corpus cavernosum tissue by the substance itself” value ([1]; 20% O2, 1 nM to 1000 μM, FIG. 4B) was “induces the relaxation of the tissue”.

In the case of O=c1onc2cnc3ccccc3n12 [ODQ, 1H-[1,2,4]oxadiazolo[4,3,a]quinoxalin-1-one], the “effect on N-hydroxy-L-arginine induced relaxation” value [1, 5] is reported as “significantly decreased the measured relaxation” and the “effect on hydroxylamine induced relaxation” value [1, 6] is reported as “significantly decreased the relaxation”.

In the case of COC(=O)[C@@H](N)CCCNC(=N)N[N+](=O)[O-] [L-NAME, N^G-nitro-L-arginine methyl ester], the “effect on N-hydroxy-L-arginine induced relaxation of aorta segments” value (rat aortic segments; 10 μM inhibitor, normoxic, non-diabetic and diabetic rats, FIGS. 9A/9B) is reported as “significantly decreased the measured relaxation”.
